ChEMBL document CHEMBL1201862, “PubChem BioAssay data set” (2004)
Calls of active or inactive are those of the source. Cut-off read from the data, not from the text of the source, for most assays here: actives have a measured EC50 and inactives only a lower limit.

Tests used:
[1] = luciferase reporter signal suppression in cells – H4 neuroglioma cells, luminescence, dose response (AID 1990); format: functional, cell-based
[2] = Luminescence Cell-Based Dose Response HTS to Identify Inhibitors of 5'UTR Stem-Loop Driven Prion Protein mRNA Translation in H4 Neuroglioblastoma Cells. [Related pubchem assays: 1827 (Project Summary), 1813 (Primary HTS)]; format: functional
[3] = alpha-synuclein stem-loop luciferase translation blockers – H4 neuroglioma cells, luminescence, confirmation (AID 1988); format: functional, cell-based
[4] = biological target: T1, Zinc finger protein mex-5 (Caenorhabditis elegans, UniProt Q9XUB2); assay: potency of MEX-5 RNA-binding blockers – biochemical, C. elegans, fluorescence polarization, dose response (AID 1960)
T1 sequence (Q9XUB2 whole entry): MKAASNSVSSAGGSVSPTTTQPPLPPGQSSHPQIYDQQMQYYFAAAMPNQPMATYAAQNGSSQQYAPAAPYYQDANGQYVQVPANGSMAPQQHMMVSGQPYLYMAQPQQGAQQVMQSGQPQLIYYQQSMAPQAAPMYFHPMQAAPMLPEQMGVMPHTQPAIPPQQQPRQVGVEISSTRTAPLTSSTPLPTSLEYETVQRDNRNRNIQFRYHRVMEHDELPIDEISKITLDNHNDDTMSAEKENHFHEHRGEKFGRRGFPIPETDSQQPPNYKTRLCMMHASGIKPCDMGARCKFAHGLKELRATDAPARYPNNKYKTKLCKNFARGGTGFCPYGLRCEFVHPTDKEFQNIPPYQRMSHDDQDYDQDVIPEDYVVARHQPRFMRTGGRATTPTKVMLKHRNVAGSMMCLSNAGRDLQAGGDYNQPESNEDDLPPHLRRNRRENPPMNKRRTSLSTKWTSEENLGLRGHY

[5] = biological target: T2, RNA-binding protein pos-1 (Caenorhabditis elegans, UniProt G5EF15); assay: disruptors of C. elegans POS-1 RNA interaction – biochemical, fluorescence polarization, dose response (AID 1964);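 note: purified POS-1 fused to maltose binding protein made in E. coli; potency of compounds blocking POS-1 binding to fluorescent RNA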
T2 sequence (G5EF15 whole entry): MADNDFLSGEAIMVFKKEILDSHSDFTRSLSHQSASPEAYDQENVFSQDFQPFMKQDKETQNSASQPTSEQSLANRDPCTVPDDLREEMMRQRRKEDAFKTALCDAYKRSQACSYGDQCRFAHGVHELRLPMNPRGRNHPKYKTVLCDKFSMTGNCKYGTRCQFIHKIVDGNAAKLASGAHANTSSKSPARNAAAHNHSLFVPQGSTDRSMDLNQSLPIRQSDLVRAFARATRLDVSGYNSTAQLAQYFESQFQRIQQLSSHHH

[6] = biological target: Luciferin 4-monooxygenase (Photinus pyralis, UniProt P08659); assay: inhibition of purified Photinus pyralis luciferase – biochemical, luminescence, dose response (AID 1891)
Sequence of Luciferin 4-monooxygenase (P08659 whole entry): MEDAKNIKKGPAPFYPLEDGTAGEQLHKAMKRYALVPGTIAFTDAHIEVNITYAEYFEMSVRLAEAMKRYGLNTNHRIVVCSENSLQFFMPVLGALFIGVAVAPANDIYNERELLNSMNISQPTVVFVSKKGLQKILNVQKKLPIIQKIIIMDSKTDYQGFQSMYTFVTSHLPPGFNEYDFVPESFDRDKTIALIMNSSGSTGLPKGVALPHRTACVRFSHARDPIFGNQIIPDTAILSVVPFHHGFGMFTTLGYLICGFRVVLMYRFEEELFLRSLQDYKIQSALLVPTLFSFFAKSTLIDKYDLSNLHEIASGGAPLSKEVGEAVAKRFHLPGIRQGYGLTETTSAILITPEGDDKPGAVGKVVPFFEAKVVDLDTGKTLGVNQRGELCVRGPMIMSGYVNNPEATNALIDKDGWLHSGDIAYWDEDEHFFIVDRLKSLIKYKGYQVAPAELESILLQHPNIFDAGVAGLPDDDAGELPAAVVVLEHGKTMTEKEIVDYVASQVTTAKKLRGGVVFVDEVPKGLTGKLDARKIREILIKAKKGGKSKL

[7] = Luminescence Cell-Based Dose Confirmation HTS to Identify Inhibitors of Platelet Dense Granule Release. [Related pubchem assays: 1663 (Primary HTS), 1678 (Summary of Project)]; format: functional
[8] = biological target: T3, Protein skinhead-1 (Caenorhabditis elegans, UniProt P34707); format: functional
T3 sequence (P34707 whole entry): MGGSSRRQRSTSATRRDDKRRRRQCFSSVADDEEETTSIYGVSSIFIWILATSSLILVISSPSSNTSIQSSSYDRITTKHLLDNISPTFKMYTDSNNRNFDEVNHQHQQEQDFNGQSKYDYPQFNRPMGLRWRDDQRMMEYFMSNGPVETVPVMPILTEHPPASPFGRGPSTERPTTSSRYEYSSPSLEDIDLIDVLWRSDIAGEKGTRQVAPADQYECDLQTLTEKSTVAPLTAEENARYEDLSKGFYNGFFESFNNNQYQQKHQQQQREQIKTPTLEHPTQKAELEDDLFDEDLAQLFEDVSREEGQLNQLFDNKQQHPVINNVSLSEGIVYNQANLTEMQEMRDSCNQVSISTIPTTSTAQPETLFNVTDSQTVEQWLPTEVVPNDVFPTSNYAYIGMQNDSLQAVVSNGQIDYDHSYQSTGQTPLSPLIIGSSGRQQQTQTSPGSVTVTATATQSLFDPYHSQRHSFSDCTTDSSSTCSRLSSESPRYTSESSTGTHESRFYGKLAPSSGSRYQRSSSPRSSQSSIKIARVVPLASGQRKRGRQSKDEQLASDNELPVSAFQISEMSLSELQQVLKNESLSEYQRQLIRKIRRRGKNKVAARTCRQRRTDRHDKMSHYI

[9] = Luminescence Cell-Based Dose Response HTS to Identify Activators of Luciferase Translation or Activity in H4 […] Cells. [Related pubchem assays: 1829 (Project Summary), 1814 (Primary HTS)]; format: functional
[10] = tested on: H4; assay: Luminescence Cell-Based Dose Response HTS to Identify Activators of 5'UTR Stem-Loop Driven Prion Protein mRNA Translation in H4 Neuroglioblastoma Cells. [Related pubchem assays: 1829 (Project Summary), 1814 (Primary HTS)]; format: functional; settings: Homo sapiens
[11] = Luminescence Cell-Based Dose Confirmation HTS to Identify Activators of 5'UTR Stem-Loop Driven Alpha-Synuclein mRNA Translation in H4 Neuroglioblastoma Cells. [Related pubchem assays: 1829 (Project Summary), 1814 (Primary HTS)]; format: functional
[12] = biological target: Cytochrome P450 2C9 (Homo sapiens, UniProt P11712)
Sequence of Cytochrome P450 2C9 (P11712 whole entry): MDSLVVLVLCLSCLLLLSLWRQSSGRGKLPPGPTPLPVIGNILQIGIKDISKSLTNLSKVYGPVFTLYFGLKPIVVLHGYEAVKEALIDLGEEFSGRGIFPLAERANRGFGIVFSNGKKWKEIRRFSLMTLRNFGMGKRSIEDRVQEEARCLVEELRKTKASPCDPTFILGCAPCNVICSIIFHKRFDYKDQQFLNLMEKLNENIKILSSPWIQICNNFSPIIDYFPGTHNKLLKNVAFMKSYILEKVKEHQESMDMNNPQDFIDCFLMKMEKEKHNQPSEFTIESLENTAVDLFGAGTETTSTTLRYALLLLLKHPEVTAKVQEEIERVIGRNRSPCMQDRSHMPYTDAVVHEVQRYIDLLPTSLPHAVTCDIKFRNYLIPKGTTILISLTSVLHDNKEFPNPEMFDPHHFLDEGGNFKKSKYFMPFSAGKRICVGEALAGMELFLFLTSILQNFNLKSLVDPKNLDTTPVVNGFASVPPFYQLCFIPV

[13] = viability of uninfected HEp-2 cells – cell-based, HTS, cytotoxicity control for RSV inhibitor project, dose response (AID 2410); format: functional; settings: human respiratory syncytial virus
[14] = Luminescence Cell-Based Dose Retest to Confirm Inhibitors of Cancer Stem Cells. [Related pubchem assays (depositor defined):AID2717, AID2721]; format: functional; settings: Homo sapiens

With `Cc1cc(N2CCN(S(=O)(=O)c3ccc(C)c(C)c3)CC2)c2ccccc2n1` the EC50 [1] was > 120 µM (not active), the EC50 [2] was 50 µM (active) and the EC50 [3] was > 120 µM (not active).
In the case of `COC(=O)CNC(=O)C1Nc2ccc(OC(F)(F)F)cc2C2C=CCC12` (centres undefined), the EC50 [4] is reported as > 300 µM (not active) and the EC50 [5] is reported as > 300 µM (not active).
In the case of `Cc1n[nH]c(S/C(C(=O)O)=C2/C(=O)Nc3ccccc32)n1`, the EC50 [5] is reported as > 300 µM (not active), the EC50 [6] is reported as 15.9 µM (active) and the EC50 [7] is reported as > 112 µM (not active).
With `Cc1cccc(NC(=O)NCCN2CCCCC2)c1` the IC50 [8] was > 100 µM (inactive).
In the case of `Cc1c(OCc2ccccc2)c(=O)ccn1Cc1ccccc1`, the EC50 [9] is reported as 9.62 µM (active), the EC50 [10] is reported as 8.26 µM (active) and the EC50 [11] is reported as 13.4 µM (active).
With `Cc1n[nH]c(O)c1N=Nc1ccc(S(N)(=O)=O)cc1` the EC50 [4] was 9.43 µM (inconclusive) and the EC50 [5] was 78.9 µM (active).
For `CC1(C)Cc2c(cnn2-c2cccc(F)c2)C(NC(=O)CSc2ccccn2)C1` (centres undefined), the EC50 [4] was > 150 µM (not active) and the EC50 [5] was > 300 µM (not active).
With `Cc1ccc(NC(=O)CC2C(=O)NC3CCCCC3N2C(=O)c2ccc(F)cc2)cc1C` (centres undefined) the EC50 [6] was > 112 µM (not active) and the EC50 [7] was > 112 µM (not active).
With `Cc1onc(-c2ccccc2Cl)c1C(=O)NCCn1ccc2ccccc21` the IC50 [8] was > 100 µM (inactive).
In the case of `O=C(Nc1ccc(Cl)cn1)c1cc2c(s1)-c1ccccc1OC2`, the IC50 [8] is reported as > 100 µM (inactive).
With `Cc1ccc(-c2csc(NC(CO)c3nc4ccccc4n3CCOCCO)n2)cc1` (centres undefined) the EC50 [9] was > 120 µM (not active), the EC50 [10] was 17.3 µM (active) and the EC50 [11] was > 120 µM (not active).
With `COCCNC(=O)C1Nc2ccc(C(F)(F)F)cc2C2C=CCC12` (centres undefined) the EC50 [4] was > 300 µM (not active) and the EC50 [5] was > 300 µM (not active).
In the case of `CCCCOC(=O)CCc1c(C)nc(O)c(C#N)c1C`, the AC50 [12] is reported as 0.282 µM (inconclusive), the EC50 [6] is reported as > 112 µM (not active) and the EC50 [7] is reported as 6.36 µM (active).
For `CCCCn1c(SCC(=O)N2c3ccccc3CCc3ccccc32)nc2c1c(=O)n(C)c(=O)n2C`, the EC50 [1] was > 120 µM (not active), the EC50 [2] was 14.2 µM (active) and the EC50 [3] was 15 µM (active).
For `Cc1nnc2ccc(-c3ccc(NC(=O)c4ccco4)cc3)nn12`, the EC50 [9] was 14.4 µM (active), the EC50 [10] was > 120 µM (not active) and the EC50 [11] was 18.5 µM (active).
With `CSc1ccc(-c2cc(=O)c3ccccc3o2)cc1` the IC50 [8] was 23.9 µM (active) and the CC50 [13] was 18.7 µM (active).
For `Sc1nnc(Cc2sc(-c3ccccc3)nc2-c2ccccc2)o1`, the EC50 [1] was 18.9 µM (active), the EC50 [2] was > 120 µM (not active) and the EC50 [3] was > 120 µM (not active).
In the case of `CN(C)c1ccc(-n2cc3c(=O)n(C)c(=O)n(C)c3c2)cc1`, the EC50 [9] is reported as 21 µM (active), the EC50 [10] is reported as 42.3 µM (active) and the EC50 [11] is reported as 45 µM (active).
With `O=C(CSc1ncnc2scc(-c3ccc(Cl)cc3)c12)NCc1ccc2c(c1)OCO2` the IC50 [8] was > 100 µM (inactive).
In the case of `COc1ncnc2c1N=C1CC(C)(C)CC(NCCC(=O)O)=C1S2`, the EC50 [4] is reported as 13.8 µM (active) and the EC50 [5] is reported as > 300 µM (not active).
With `COc1ccc(NC(=O)c2cccs2)cc1` the EC50 [6] was 17.4 µM (active) and the EC50 [7] was 18.6 µM (active).
In the case of `CC(C)OC(=O)c1nn2c(C(F)(F)F)cc(-c3ccc(Br)o3)nc2c1Br`, the EC50 [4] is reported as > 300 µM (not active) and the EC50 [5] is reported as > 300 µM (not active).
In the case of `O=C(Nc1ccc(Cl)cn1)c1ccccc1F`, the IC50 [8] is reported as 16.3 µM (active).
For `N#CCCN(C(=O)COC(=O)CCc1c[nH]c2ccccc12)c1ccc(F)cc1`, the EC50 [6] was > 112 µM (not active) and the EC50 [7] was 45.7 µM (active).
In the case of `N=c1nc(SCCC(=O)O)ss1`, the EC50 [1] is reported as 13.4 µM (active), the EC50 [2] is reported as 15.8 µM (active) and the EC50 [3] is reported as 14 µM (active).
In the case of `FC(F)(F)c1cc(Oc2ccccc2Cl)nc(-c2ccccn2)n1`, the EC50 [1] is reported as 7.86 µM (active), the EC50 [2] is reported as > 120 µM (not active) and the EC50 [3] is reported as 6.37 µM (active).
With `Cc1cccc(N=Nc2c(O)[nH]c3ccc(Br)cc23)c1` the EC50 [4] was 26.9 µM (inconclusive) and the EC50 [5] was 68.3 µM (active).
In the case of `Cc1cc(Nc2cccc([N+](=O)[O-])c2)c2cccc(C)c2n1`, the EC50 [6] is reported as > 112 µM (not active) and the EC50 [7] is reported as > 112 µM (not active).
In the case of `O=C(NCCc1ccccn1)c1ccc(S(=O)(=O)N2CCCCCC2)cc1`, the IC50 [8] is reported as > 100 µM (inactive).
For `Cc1ccc(Nc2ccc([N+](=O)[O-])ccc2=O)cc1`, the EC50 [4] was > 300 µM (not active) and the EC50 [5] was > 300 µM (not active).
For `Brc1ccc(-c2nnc(-c3cccnc3)o2)cc1`, the IC50 [8] was 25.1 µM (active).
For `O=C(NCc1ccc(Cl)cc1)c1ccc(-c2ccc(F)c(F)c2)c2ccoc12`, the IC50 [8] was > 100 µM (inactive).
In the case of `CC(=O)c1sc(N/N=C2\CC3CC2C(C)C3(C)C)nc1C` (centres undefined), the EC50 [9] is reported as 12.9 µM (active), the EC50 [10] is reported as 11 µM (active) and the EC50 [11] is reported as 0.411 µM (active).
In the case of `O=C(Cn1c2ccccc2c(=O)c2ccccc21)N/N=C/c1ccc(N2CCCC2)c([N+](=O)[O-])c1`, the AC50 [14] is reported as 0.483 µM (active), the EC50 [6] is reported as > 112 µM (not active) and the EC50 [1] is reported as 5.67 µM (active). For the same compound, the EC50 [7] was 27.4 µM (active), the EC50 [2] was 7.94 µM (active) and the EC50 [3] was 5.08 µM (active).
In the case of `N#CC(=Cc1cccs1)c1nc(-c2ccc(Cl)cc2)cs1`, the IC50 [8] is reported as > 100 µM (inactive).
For `Cc1ccc(-n2cnc3c(sc4nccc(N(C)C)c43)c2=O)cc1`, the EC50 [9] was 75.7 µM (active), the EC50 [10] was 15.6 µM (active) and the EC50 [11] was > 120 µM (not active).
For `Cc1nnc(O)nc1N/N=C/c1ccc(O)c([N+](=O)[O-])c1`, the EC50 [4] was 65.5 µM (active) and the EC50 [5] was 169 µM (active).
For `COc1ccc(/C=N/N=C(/N)N[N+](=O)[O-])c(OC)c1`, the EC50 [6] was > 112 µM (not active) and the EC50 [7] was 2.39 µM (active).
